Results taken from patent publication US20200316230A1, “DEVICES AND METHODS FOR RADIOPHARMACEUTICAL SYNTHESIS” (VANDERBILT UNIVERSITY, priority 2019, published 2020).

Experiment: microPET imaging of rat brain with [^18F]fallypride produced in the microfluidic chip
Format: in vivo
Details: microPET for about 2 hours, dose of about 300 μCi injected
Description: To further verify the utility of the resulting [^18F]fallypride, we produced (using the integrated microfluidic chip) a dose of about 300 μCi with about 19.55 Ci/μmol (723.35 GBq/μmol) of specific activity and about 98.62% of radiochemical purity, and obtained PET data from a rat brain. The time point used to calculate the specific activity was at the end of production, namely the time when the purified [^18F]fallypride was retrieved from chip. The rat was brought to the imaging lab to habituate about 3 hours prior to imaging. Sbout 0.1 ml purified [^18F] fallypride was filtered through an about 0.45 μm filter (Millex-HV) and about 0.9 ml saline was added to formulate the PET probe used for rat injection. […] The accumulation and pharmacokinetics of [^18F]fallypride were as expected when evaluated in the rat brain.

SMILES: C=CCN1CCC[C@H]1CNC(=O)c1cc(CCC[18F])cc(OC)c1OC [[^18F]fallypride]
- accumulation and pharmacokinetics of [^18F]fallypride in the rat brain: as expected
